Laboratory results published in patent EP0200024B1, “3-Cyano-pyridines, process for their preparation and their pharmaceutical use” (ARZNEIMITTELWERK DRESDEN GmbH, priority 1985, dated 1986).
Read-outs that look alike come from different tables or passages of the source.

Tests used:
[1] = test system: Langendorff-Herz; experiment: Langendorff heart in vitro (isolated perfused, freely beating heart; inotropy, chronotropy, coronary flow); parameters: species or system Meerschweinchen; details: for EC30: molarity of solution, 0,1 ml bolus into aortic stump, giving 30 % increase of inotropy, read-out: Erhöhung der Inotropie um 30 % bei Applikation von je 0,1 ml einer ... molaren Lösung; for EC100: molarity of solution, 0,1 ml bolus, giving 100 % increase of coronary flow, read-out: Erhöhung des Koronardurchflusses um 100 % bei Applikation von je 0,1 ml einer ... molaren Lösung; for positiv chronotrope Wirkung / positiv inotrope Wirkung: result in words
Method: Für die Versuche wurden männliche Meerschweinchen mit einer, Körpermasse von 300-350 g eingesetzt. An isolierten, mit carbogenbegaster Tyrodelösung von 37 °C durchströmten, frei schlagenden Herzen, wurden unter konstantem Druck die Kontraktionskraft (Inotropie), die Frequenz (Chronotropie) und der Koronardurchfluß unter dem Einfluß der 3-Cyan-2-(heteroalkyl-1-hetero)-5-(pyrid-4-yl)-pyridine der Formel I untersucht. Dazu wurden jeweils 0,1 ml der entsprechend molaren Substanzlösungen als Bolus direkt in den Aortenstumpf appliziert. Die 3-Cyan-2-(heteraalkyl-1-hetera)-5-(pyrid-4-yl)-pyridine zeigten eine teilweise starke und konzentrationsabhängige positiv inotrope und koronardilatatorische Wirkung. Die positiv chronotrope Wirkung war deutlich geringer, ausgeprägt. Beispielsweise zeigen die Verbindungen der Beispiele 1.2, 1.6, 1.7 und 1.8 eine Erhöhung der Inotropie um 30 % bei Applikation von je 0,1 ml einer 3,0 · 10⁻³, 2,2 · 10⁻², 2,0 · 10⁻⁴ bzw. 1,0 · 10⁻³ molaren Lösung und eine Erhöhung des Koronardurchflusses um 100 % bei Applikation von je 0,1 ml einer 6,0 · 10⁻³, 6,5 · 10⁻², 1,1 · 10⁻² bzw. 1,3 · 10⁻² molaren Lösung. Die Verbindungen der Beispiele 2.2, 2.3 und 2.4 weisen bei Applikation von je 0,1 ml einer 10⁻² molaren Stammlösung in die Aorta eine Erhöhung der Inotropie um 51 %, 38 % und 31 % sowie eine Erhöhung des Koronardurchflusses um 59 %, 99 % bzw. 88 % auf.

[2] = test system: Isolierter, spontanaktiver Vorhof des Meerschweinchens; experiment: Isolated, spontaneously active atrium (inotropy and frequency); parameters: species or system Meerschweinchen; details: for chronotrope Wirkung / positiv inotrope Wirkung: result in words
Method: Für die Versuche wurden männliche Meerschweinchen mit einer Körpermasse von 400-500 g verwendet. Am isolierten, spontanaktiven Vorhof erfolgte nach einer 60 Min. währenden Adaptationszeit der Organpräparate in 32 °C temperierter carbogen-durchperlter Tyrodelösung die Untersuchung der Beeinflussung von Inotropie und Frequenz unter Einwirkung der 3-Cyan-2-(heteroalkyl-1-hetero)-pyridine der Formel I. Eine Reihe von Verbindungen zeigte eine starke und dosisabhängige positiv inotrope Wirkung. Bei Verwendung einer Tyrodelösung nach A.A. Alousi et al. [Circ. Res. 45, 666 (1979)] zeigen beispielsweise die Verbindungen von Beispiel 1.2, 1.7, 1.27, 3.3, 3.4, 3.5, 4.1 bzw. 4.3 eine 30%ige Steigerung der Inotropie bei Konzentrationen von 5,6 · 10⁻⁵, 5,4 · 10⁻⁶, 5,0 · 10⁻⁵, 5,8 · 10⁻⁵, 9,1 · 10⁻⁵, 1,6 · 10⁻⁴, 3,5 · 10⁻⁵ und 5,4 · 10⁻⁵ mol/l. Die Verbindung von Beispiel 1.27 zeigt bei einer Konzentration von 5 · 10⁻⁵ mol/l eine Abnahme der Frequenz um 15 %. Die Verbindung von Beispiel 1.8 zeigt bei Verwendung einer Tyrodelösung mit der Zusammensetzung (mmol/l): NaCl 136,9; KCl 2,7; CaCl₂ 1,8; MgCl₂ 1,0; NaHCO₃ 11,9; NaH₂PO₄ 0,4; Glucose 16,5 eine 30%ige Steigerung der Inotropie bei einer Konzentration von 1,2 · 10⁻⁴ mol/l.

[3] = test system: Samenleiter von Meerschweinchen; experiment: Noradrenaline antagonism in vitro (noradrenaline contraction of isolated vas deferens); details: for IC50: Cavia porcellus, compound given 1 min before submaximal noradrenaline concentration, read-out: ED₅₀-Werte (Hemmung der Noradrenalinkontraktion); for Hemmung der Noradrenalinkontraktion: result in words
Method: Die in Warmblüterphosphattyrode präparierten Samenleiter von Meerschweinchen (ca. 400 g Körpermasse) wurden 60 Min. im Organbad adaptiert. Anschließend wurden die Kontraktionen unter Gabe von Noradrenalin isotonisch registriert. Die 3-Cyan-2-(heteroalkyl-1-hetero)-pyridine der Formel I wurden 1 Min vor den jeweils submaximal reagierenden Noradrenalinkonzentrationen in das Organbad appliziert. […] Für die Verbindungen von Beispiel 1.2, 1.6, 1.7 und 1.8 ergaben sich beispielsweise ED₅₀-Werte von 2,2 · 10⁻⁵, 1,6 · 10⁻⁴, 2,5 · 10⁻⁴ sowie 1,3 · 10⁻⁴ mol/l.

[4] = test system: Meerschweinchen; experiment: Inhalative histamine bronchospasm, oral administration; type: in vivo; details: Cavia porcellus, 1 h, 60 min before inhaled 0,1 % histamine, 10 animals per dose, read-out: ED₅₀-Werte (Schutz vor Histamin-Bronchialkonstriktionen)
Method: Eine, in einem Ultraschallverdampfer vernebelte 0,1 %ige Histaminlösung induziert an männlichen Meerschweinchen (Körpermasse 200-300 g) innerhalb von 2 bis 3 Min. typische Bronchialkonstriktionen. Durch orale Verabreichung geeigneter Dosen der 3-Cyan-2-(heteroalkyl-1-hetero)-pyridine der Formel I 60 Min. vor der inhalativen Histamingabe wurden die Tiere innerhalb einer festgelegten Expositionszeit vor den durch Histamin verursachten Bronchialkonstriktionen geschützt. Für die Derivate von Beispiel 1.2, 1.6, 1.7 und 1.8 ergeben sich z.B. aus je 10 Tieren pro Dosis ED₅₀-Werte von 4,3 · 10⁻⁴, 6,0 · 10⁻⁴, 3,3 · 10⁻⁴ sowie 2,5 · 10⁻⁴ mol/kg, was auf deutliche bronchodilatatorische bzw. antiallergische Wirkungen hinweist.

[5] = test system: Narkotisiertes Minischwein; experiment: Anaesthetised minipig i.v. (dp/dtmax, blood pressure); type: in vivo, Zwergschweinen (Mini-LEWE); details: result in words
Text: Die Untersuchungen wurden an 6 männlichen Zwergschweinen (Mini-LEWE) mit einem durchschnittlichen Gewicht von 50 kg durchgeführt. Die Tiere wurden unter N₂O-O₂-Beatmung (3:1) und Muskelrelaxation (d-Tubocurarin) thorakotomiert. Der Blutdruck wurde in der Aorta ascendens mittels Transducer und der Druck im linken Ventrikel (LVP) mit einem Tipmanometer gemessen. Aus dem LVP-Signal wurde über ein Differenzierglied dp/dtmax ermittelt. Aus dem EKG wurde mit einem Kardiotachometer die Herzfrequenz zusammen mit anderen Signalen registriert. Das Herz-Zeit-Volumen wurde mit einem elektromagnetischen Flowmeter gemessen und über einen Integrator das Herz-Schlag-Volumen ermittelt. Einige der 3-Cyan-2-(heteroalkyl-1-hetero)-pyridine der Formel I zeigen an diesem Modell eine starke und dosisabhängige Erhöhung der Kontraktilität des Herzens (dp/dtmax) sowie teilweise eine signifikante Senkung des totalen peripheren Gesamtwiderstandes. So wurden beispielsweise unter den Verbindungen von Beispiel 1.2 und 1.7 bei einer Dosis von 2,0 · 10⁻⁶ bzw. 5,5 · 10⁻⁷ eine 50%ige Steigerung des Kontraktilitätsparameters dp/dtmax sowie bei einer Dosis von 1,1 · 10⁻⁶ bzw. 1,7 · 10⁻⁶ eine 10%ige Senkung des diastolischen Blutdruckes, der neben der beobachteten Steigerung des Herzzeitvolumens eine wesentliche Größe zur Bestimmung des totalen peripheren Gefäßwiderstandes darstellt, gefunden.

[6] = Tyrode solution according to A.A. Alousi et al., 32 °C, read-out: 30%ige Steigerung der Inotropie bei Konzentrationen von

N#Cc1cc(-c2ccncc2)cnc1NCCCO [Beispiel 1.8, 3-Cyan-2-(3-hydroxy-propylamino)-5-(pyrid-4-yl)-pyridin]
EC30 [1]: 1000 µM
EC100 [1]: 13000 µM
positiv chronotrope Wirkung [1]: relative geringer positiv chronotroper Aktivität
positiv inotrope Wirkung [1]: ausgeprägte und dosisabhängige positiv inotrope Wirkung
EC30 ([2]; Tyrode solution (mmol/l): NaCl 136,9, KCl 2,7, CaCl₂ 1,8, MgCl₂ 1,0, NaHCO₃ 11,9, NaH₂PO₄ 0,4, Glucose 16,5, read-out: 30%ige Steigerung der Inotropie bei einer Konzentration von): 120 µM
chronotrope Wirkung [2]: relative geringer positiv chronotroper Aktivität
positiv inotrope Wirkung [2]: ausgeprägte und dosisabhängige positiv inotrope Wirkung
IC50 [3]: 130 µM
ED50 [4]: 250 µmol/kg

N#Cc1cc(-c2ccncc2)cnc1NCCO [Beispiel 1.2, 3-Cyan-2-(2-hydroxy-ethylamino)-5-(pyrid-4-yl)-pyridin]
EC30 [1]: 3000 µM
EC100 [1]: 6000 µM
positiv chronotrope Wirkung [1]: relative geringer positiv chronotroper Aktivität
positiv inotrope Wirkung [1]: ausgeprägte und dosisabhängige positiv inotrope Wirkung
EC30 [2, 6]: 56 µM
chronotrope Wirkung [2]: relative geringer positiv chronotroper Aktivität
positiv inotrope Wirkung [2]: ausgeprägte und dosisabhängige positiv inotrope Wirkung
Senkung des diastolischen Blutdruckes [5]: dosisabhängige signifikante Senkung
Steigerung des Kontraktilitätsparameters dp/dtmax [5]: beträchtliche dosisabhängige Steigerung
IC50 [3]: 22 µM
Hemmung der Noradrenalinkontraktion [3]: konzentrationsabhängige Hemmung
ED50 [4]: 430 µmol/kg

N#Cc1cc(-c2ccncc2)cnc1N1CCOCC1 [Beispiel 1.7, 3-Cyan-2-morpholino-5-(pyrid-4-yl)-pyridin]
EC30 [1]: 200 µM
EC100 [1]: 11000 µM
positiv chronotrope Wirkung [1]: relative geringer positiv chronotroper Aktivität
positiv inotrope Wirkung [1]: ausgeprägte und dosisabhängige positiv inotrope Wirkung
EC30 [2, 6]: 5.4 µM
chronotrope Wirkung [2]: relative geringer positiv chronotroper Aktivität
positiv inotrope Wirkung [2]: ausgeprägte und dosisabhängige positiv inotrope Wirkung
Senkung des diastolischen Blutdruckes [5]: dosisabhängige signifikante Senkung
Steigerung des Kontraktilitätsparameters dp/dtmax [5]: beträchtliche dosisabhängige Steigerung
IC50 [3]: 250 µM
Hemmung der Noradrenalinkontraktion [3]: konzentrationsabhängige Hemmung
ED50 [4]: 330 µmol/kg
